Source: patent US20110053897A1 (IRM LLC, priority 2009, published 2011)
Where two headings read alike, the source gives them in different places.

Target: T1, Syk kinase (Homo sapiens, UniProt P43405)
T1 construct: purchased
Assay: Syk kinase inhibition, Caliper LabChip off-chip mobility-shift kinase assay
Format: biochemical
Conditions: read-out: Syk Enzyme IC50
In short: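 Purified Syk pre-incubated 15 min with compound in 100 mM HEPES pH 7.5, 1 mM DTT, 10 mM MgCl2 or MnCl2, 0.002% Brij-35, then 1.5 μM fluorescein peptide and ATP at apparent KM added; 1–1.5 h at room temperature, 4% DMSO, EDTA stop. Microfluidic mobility-shift product/substrate conversion gave % inhibition; IC50 from 12-point series (10–0.00003 μM) by 4-parameter fit.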

Row | Compound | IC50 [nM] | IC50 (Caliper LabChip assay) [nM]
1 | N#Cc1ccc(Nc2cc3cc[nH]c(=O)c3c(Nc3ccc(N4CCOCC4)cc3)n2)nc1 [compound 515] | 301 | –
2 | Nc1ncc(-c2cc3ccn(CCO)c(=O)c3c(N3CCCC3)n2)cn1 [compound 909] | – | 546
3 | COc1ncc(-c2cc3c(F)c[nH]c(=O)c3c(Nc3ccc(N4CCOCC4)cc3)n2)cn1 [compound 430] | 120 | –
4 | Cc1cc(-c2ccnc(Nc3cc4ccn(CCO)c(=O)c4c(NC(C)(C)C)n3)c2)ccn1 [compound 854] | – | 64
5 | COc1cncc(-c2cc3cc[nH]c(=O)c3c(Nc3ccc(CCN4CCNC(=O)C4)cc3)n2)n1 [compound 155] | 55 | –
6 | COc1cncc(-c2cc3cc[nH]c(=O)c3c(Nc3ccc(C4CCN(C(=O)C(O)C(C)C)CC4)c(C)c3)n2)n1 (stereo not shown) [compound 6] | 398 | –
7 | COc1cncc(-c2cc3cc[nH]c(=O)c3c(Nc3ccc(C4CCN(C(C)C(=O)NC5CC5)CC4)c(C)c3)n2)n1 (stereo not shown) [compound 121] | 183 | –
8 | CC(C)Nc1nc(Nc2ccc(Cl)cn2)cc2cc[nH]c(=O)c12 [compound 560] | 611 | –
9 | CC(O)c1ccnc(Nc2cc3ccn(CC(N)=O)c(=O)c3c(NC3(C)CC3)n2)c1 (stereo not shown) [compound 723] | – | 48
10 | COc1cncc(-c2cc3cc[nH]c(=O)c3c(Nc3ccc(C4CCN(C(C)C(=O)NC(C)C)CC4)c(C)c3)n2)n1 (stereo not shown) [compound 175] | 144 | –
11 | CC(C)(C)Nc1nc(Nc2cnccn2)cc2ccn(C(C)(C)C(N)=O)c(=O)c12 [compound 672] | – | 34
12 | CC1(Cn2ccc3cc(-c4cnc(N)nc4)nc(NC4CCCC4)c3c2=O)COC1 [compound 760] | – | 128
13 | CN1CCC(c2ccc(Nc3nc(Nc4cnccn4)cc4ccn(C)c(=O)c34)cc2)CC1 [compound 344] | 45 | –
14 | Cc1ccnc(Nc2cc3cc[nH]c(=O)c3c(NCC(O)c3cccc(Cl)c3)n2)c1 (stereo not shown) [compound 496] | 115 | –
15 | Cn1ccc2cc(Nc3cnccn3)nc(NC(C)(C)C)c2c1=O [compound 466] | 120 | –
16 | CCn1ccc2cc(Nc3cnc(C)cn3)nc(N[C@H]3CC[C@@H](O)CC3)c2c1=O [compound 392] | 193 | –
17 | Cn1cc2cc(Nc3nc(Nc4c[n+]([O-])ccn4)cc4ccn(CCO)c(=O)c34)ccc2n1 [compound 658] | – | 99
18 | CCN1CCN(CCc2ccc(Nc3nc(-c4cnn(CC(C)C)c4)cc4cc[nH]c(=O)c34)cc2)CC1 [compound 444] | 122 | –
19 | CCn1ccc2cc(Nc3cc(C)ccn3)nc(N[C@H]3CC[C@H](O)C3)c2c1=O [compound 945] | – | 23
20 | CCn1ccc2cc(Nc3cnccn3)nc(NC[C@H]3CC[C@@](C)(O)C3)c2c1=O [compound 417] | 95.6 | –
21 | CC(C)(C)Nc1nc(Nc2cc(OC3CCNCC3)ncn2)cc2ccn(CCO)c(=O)c12 [compound 645, 8-(tert-butylamino)-2-(2-hydroxyethyl)-6-(6-(piperidin-4-yloxy)pyrimidin-4-ylamino)-2,7-naphthyridin-1(2H)-one] | – | 5
22 | CCN1CCC[C@@H]1CNc1nc(Nc2cc(C)ccn2)cc2cc[nH]c(=O)c12 [compound 589] | 5560 | –
23 | COc1cncc(-c2cc3cc[nH]c(=O)c3c(Nc3ccc(C4CCN(C(C)=O)CC4)c(C)c3)n2)n1 [compound 144] | 92 | –
24 | CCOCC(=O)N1CCC(c2ccc(Nc3nc(-c4cncc(OC)n4)cc4cc[nH]c(=O)c34)cc2)CC1 [compound 28] | 115 | –
25 | N#CCCn1ccc2cc(Nc3cnccn3)nc(N[C@H]3CC[C@@H](O)CC3)c2c1=O [compound 1002] | – | 14

Row | Compound | IC50 [nM] | IC50 (Caliper LabChip assay) [nM]
26 | COCCCN(C)S(=O)(=O)c1ccc(Nc2nc(Nc3cc(C)ccn3)cc3ccn(C)c(=O)c23)cc1 [compound 651] | – | 2410
27 | COc1cncc(-c2cc3cc[nH]c(=O)c3c(Nc3ccc(C4CCN(C5CS(=O)(=O)C5)CC4)c(C)c3)n2)n1 [compound 42] | 26 | –
28 | CN1CCC(Oc2cc(Nc3cc4ccn(CCO)c(=O)c4c(NC(C)(C)C)n3)ncn2)CC1 [compound 648, 8-(tert-butylamino)-2-(2-hydroxyethyl)-6-(6-(1-methylpiperidin-4-yloxy)pyrimidin-4-ylamino)-2,7-naphthyridin-1(2H)-one] | – | 6
29 | CC(C)(C)Nc1nc(Nc2cc(CN3CCOCC3)ccn2)cc2ccn(CCO)c(=O)c12 [compound 603] | – | 56
30 | CC(C)(C)Nc1nc(-c2cnc(N)nc2)cc2ccn(CC(=O)O)c(=O)c12 [compound 667] | – | 23
31 | COCCNCc1ccnc(Nc2cc3ccn(CCO)c(=O)c3c(NC(C)(C)C)n2)c1 [compound 694] | – | 237
32 | O=c1[nH]ccc2cc(Nc3ccc(Cl)cn3)nc(Nc3ccc(N4CCOCC4)cc3)c12 [compound 526] | 803 | –
33 | CC(C)(C)Nc1nc(Nc2cnccn2)cc2ccn(Cc3nn[nH]n3)c(=O)c12 [compound 884] | – | 27
34 | CC(C)(C)Nc1nc(Nc2cc(C3CCNCC3)ncn2)cc2ccn(CCO)c(=O)c12 [compound 638] | – | 96
35 | C#CCn1ccc2cc(Nc3cnccn3)nc(NC(C)(C)C)c2c1=O [compound 882] | – | 51
36 | CC(C)(C)Nc1nc(Nc2cnccn2)cc2ccn(Cc3cccnc3)c(=O)c12 [compound 1020] | – | 164
37 | CC(C)(C)Nc1nc(Nc2cc(CO)ncn2)cc2ccn(CCO)c(=O)c12 [Compound No. 607, 8-(tert-butylamino)-2-(2-hydroxyethyl)-6-(6-(hydroxymethyl)pyrimidin-4-ylamino)-2,7-naphthyridin-1(2H)-one] | – | 29
38 | CCn1ccc2cc(Nc3cc(C)ccn3)nc(N[C@H]3CCC[C@@H]3O)c2c1=O [compound 422] | 86.1 | –
39 | CC[C@H](CO)Nc1nc(Nc2cnccn2)cc2ccn(CC)c(=O)c12 [compound 457] | 302 | –
40 | CN1CCC(Nc2nc(-c3cnc(N)nc3)cc3ccn(C)c(=O)c23)CC1 [compound 31] | 1770 | –
41 | CC1(Cn2ccc3cc(Nc4cnccn4)nc(NC4CCC4)c3c2=O)COC1 [compound 755] | – | 9
42 | Cn1ccc2cc(Nc3cnccn3)nc(Nc3ccc(C(=O)N4CCOCC4)cc3)c2c1=O [compound 476] | 350 | –
43 | CC1(Nc2nc(Nc3cc(C4(O)COC4)ccn3)cc3ccn(CC(N)=O)c(=O)c23)CC1 [compound 617] | – | 64
44 | CC(C)Nc1nc(Nc2cc(C(N)=O)ccn2)cc2cc[nH]c(=O)c12 [compound 514] | 51 | –
45 | Cc1ccnc(Nc2cc3c(F)cn(C)c(=O)c3c(NC(C)C)n2)c1 [compound 567] | 978 | –
46 | COc1cncc(-c2cc3cc[nH]c(=O)c3c(Nc3ccc(C4CN(C)C4)cc3)n2)n1 [compound 146] | 4 | –
47 | CCC(C)C(=O)N1CCC(c2ccc(Nc3nc(-c4cncc(OC)n4)cc4cc[nH]c(=O)c34)cc2C)CC1 (stereo not shown) [compound 76] | 225 | –
48 | CC(C)(O)COc1cc(Nc2cc3ccn(CCO)c(=O)c3c(NC(C)(C)C)n2)ncn1 [compound 641] | – | 56
49 | CCn1ccc2cc(Nc3cc(Cl)ccn3)nc(NCC(F)(F)F)c2c1=O [compound 592] | 962 | –
50 | COCCN1CCC(c2ccc(Nc3nc(-c4cncnc4)cc4cc[nH]c(=O)c34)cc2F)CC1 [compound 198] | 31 | –

Row | Compound | IC50 [nM] | IC50 (Caliper LabChip assay) [nM]
51 | Cn1ccc2cc(Nc3cnccn3)nc(N[C@H]3CCOC3)c2c1=O [compound 329] | 63 | –
52 | COCC(C)Nc1nc(Nc2cc(C)ccn2)cc2cc[nH]c(=O)c12 (stereo not shown) [compound 266] | 74 | –
53 | [2H]C([2H])([2H])n1ccc2cc(Nc3cnccn3)nc(N[C@H]3CC[C@H](O)CC3)c2c1=O [compound 984] | – | 29
54 | CC(C)(C)Nc1nc(Nc2cc(C(C)(C)O)ncn2)cc2ccn(C[C@H](O)CO)c(=O)c12 [compound 740] | – | 54
55 | CC(C)(C)Nc1nc(Nc2cc(-c3ccno3)ccn2)cc2ccn(CCO)c(=O)c12 [compound 689] | – | 151
56 | CCOC(=O)CCc1cc2cc[nH]c(=O)c2c(Nc2ccc(N3CCOCC3)cc2)n1 [compound 245] | 295 | –
57 | CC(CO)Nc1nc(Nc2ccccn2)cc2cc[nH]c(=O)c12 (stereo not shown) [compound 274] | 55 | –
58 | CC(C)Nc1nc(Nc2cnccn2)cc2ccn(C)c(=O)c12 [compound 347] | 57 | –
59 | CCn1ccc2cc(Nc3cnccn3)nc(Nc3ccc(C(=O)NCCO)cc3)c2c1=O [compound 831] | – | 213
60 | CCN1CCN(Cc2n[nH]c3cc(Nc4nc(-c5cncnc5)cc5cc[nH]c(=O)c45)ccc23)CC1 [compound 202] | 27 | –
61 | CC1(Cn2ccc3cc(-c4cnc(N)nc4)nc(NC4(C)CCC4)c3c2=O)COC1 [compound 932] | – | 57
62 | COCCNC(=O)c1ccc(Nc2nc(Nc3cc(C)ccn3)cc3ccn(C)c(=O)c23)cc1 [compound 652] | – | 660
63 | CCCc1cc2cc[nH]c(=O)c2c(Nc2ccc(C3CCN(C4CC4)CC3)c(C)c2)n1 [compound 230] | 556 | –
64 | CNC(C)(C)C(=O)N1CCC(c2ccc(Nc3nc(-c4cncc(OC)n4)cc4cc[nH]c(=O)c34)cc2C)CC1 [compound 84] | 5 | –
65 | [2H]C([2H])([2H])n1ccc2cc(Nc3cnccn3)nc(N[C@@H](C)CO)c2c1=O [compound 402] | 45.7 | –
66 | CC[C@H](C)Nc1nc(Nc2ccccn2)cc2cc[nH]c(=O)c12 [compound 290] | 271 | –
67 | Cc1ccnc(Nc2cc3ccn(CCO)c(=O)c3c(NCC(F)F)n2)c1 [compound 815] | – | 117
68 | CCn1ccc2cc(-c3cnc(N)nc3)nc(NC3CC3)c2c1=O [compound 37] | 69 | –
69 | C[C@@H](O)CNc1nc(-c2cnc(N)nc2)cc2cc[nH]c(=O)c12 [compound 452] | 140 | –
70 | CCn1ccc2cc(Nc3cc(Cl)ccn3)nc(NC(C)C)c2c1=O [compound 305] | 257 | –
71 | CC(C)(C)Nc1nc(Nc2ccc(C#N)cn2)cc2ccn(CCO)c(=O)c12 [compound 697] | – | 208
72 | COc1cncc(-c2cc3cc[nH]c(=O)c3c(Nc3ccc(C4CCN(C(=O)N5CCOCC5)CC4)c(C)c3)n2)n1 [compound 115] | 181 | –
73 | CNC(=O)CN1CCC(c2ccc(Nc3nc(-c4cncc(OC)n4)cc4cc[nH]c(=O)c34)cc2C)CC1 [compound 135] | 48 | –
